Assays:
[1] = target: T1, Menin/MLL (terbium chelate-labeled menin, FITC-MBM1 peptide) (Homo sapiens, UniProt O00255, T541A); experiment: Menin/MLL homogenous time-resolved fluorescence (HTRF) assay; format: binding; details: averaged values over all measurements; read-out: Menin HTRF assay (IC50)
T1 construct: Menin (a.a. 1-610-6×his tag) was labeled with terbium cryptate as follows
T1 sequence (O00255 with tags, fused parts or gaps T541A): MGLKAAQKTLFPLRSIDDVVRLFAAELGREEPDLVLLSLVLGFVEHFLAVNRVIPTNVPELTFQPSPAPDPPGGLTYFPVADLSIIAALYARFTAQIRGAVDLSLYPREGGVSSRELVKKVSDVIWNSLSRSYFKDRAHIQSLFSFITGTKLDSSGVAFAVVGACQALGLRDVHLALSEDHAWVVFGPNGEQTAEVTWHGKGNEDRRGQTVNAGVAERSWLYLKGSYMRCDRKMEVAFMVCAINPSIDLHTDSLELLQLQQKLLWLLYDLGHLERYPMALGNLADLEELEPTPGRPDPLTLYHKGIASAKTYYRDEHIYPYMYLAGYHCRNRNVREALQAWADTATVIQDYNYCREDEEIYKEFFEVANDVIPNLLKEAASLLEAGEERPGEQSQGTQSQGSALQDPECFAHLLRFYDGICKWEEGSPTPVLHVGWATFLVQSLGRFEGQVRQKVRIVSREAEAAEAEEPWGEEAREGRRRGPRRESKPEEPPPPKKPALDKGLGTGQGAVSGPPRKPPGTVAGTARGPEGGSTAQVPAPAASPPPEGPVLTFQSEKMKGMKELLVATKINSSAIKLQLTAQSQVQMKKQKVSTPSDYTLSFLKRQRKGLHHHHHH
Description: 3) Menin/MLL Homogenous Time-Resolved Fluorescence (HTRF) Assay
To an untreated, white 384-well microtiter plate was added 40 nL 200× test compound in DMSO and 4 μL 2× terbium chelate-labeled menin (vide infra for preparation) in assay buffer (40 mM Tris-HCl, pH 7.5, 50 mM NaCl, 1 mM DTT and 0.05% Pluronic F-127). After incubation of test compound and terbium chelate-labeled menin for 5 min at ambient temperature, 4 μL 2×FITC-MBM1 peptide (FITC-β-alanine-SARWRFPARPGT-NH2) in assay buffer was added, the microtiter plate centrifuged at 1000 rpm for 1 min and the assay mixtures incubated for 15 min at ambient temperature. The relative amount of menin⋅FITC-MBM1 complex present in an assay mixture is determined by measuring the homogenous time-resolved fluorescence (HTRF) of the terbium/FITC donor/acceptor fluorophore pair using a BMG Pherastar plate reader (ex. 337 nm/terbium em. 490 nm/FITC em. 520 nm) at ambient temperature. The degree of fluorescence resonance energy transfer (the HTRF value) is expressed as the ratio of the fluorescence emission intensities of the FITC and terbium fluorophores (F^em 520 nm/F^em 490 nm). The final concentrations of reagents in the binding assay are 100 pM terbium chelate-labeled menin, 75 nM FITC-MBM1 peptide and 0.5% DMSO in assay buffer. Dose-response titrations of test compounds are conducted using an 11 point, three-fold serial dilution scheme, starting at 31 μM.
Compound potencies were determined by first calculating % inhibition at each compound concentration according to equation 1: % inhibition=((HC−LC)−(HTRF^compound−LC))/(HC−LC))*100 (Eqn 1)
Where LC and HC are the HTRF values of the assay in the presence or absence of a saturating concentration of a compound that competes with FITC-MBM1 for binding to menin, and HTRF^compound is the measured HTRF value in the presence of the test compound. HC and LC HTRF values represent an average of at least 16 replicates per plate.
Where Bottom and Top are the lower and upper asymptotes of the dose-response curve, respectively, IC50 is the concentration of compound that yields 50% inhibition of signal and h is the Hill coefficient.
Preparation of Terbium cryptate labeling of Menin: Menin (a.a. 1-610-6×his tag) was labeled with terbium cryptate as follows. 2 mg of Menin was buffer exchanged into 1× phosphate buffered saline. 16 uM Menin was incubated with 4-fold molar excess NHS-terbium cryptate (Cisbio Bioassays, Bedford, Mass.) for 2 hours at room temperature. The labeled protein was purified away from free label by running the reaction over a Superdex 200 Increase 10/300 GL column at 0.75 ml/min. Peak fractions were collected, aliquoted and frozen at −80° C.

[2] = system: MV-4-11; experiment: Proliferation assay (spheroid assay) MV-4-11; format: cell-based, human; details: Homo sapiens, MV4-11, MV-4-11; averaged values over all measurements; read-out: Spheroid assay MV-4-11 (IC50)
Description: The anti-proliferative effect of menin/MLL protein/protein interaction inhibitor test compounds was assessed in human leukemia cell lines. The cell lines MV-4-11 and MOLM14 harbor MLL translocations and express the MLL fusion proteins MLL-AF4 and MLL-AF9, respectively, as well as the wildtype protein from the second allele. […] K562 and KG1 were used as a control cell lines containing two MLL wildtype alleles in order to exclude compounds that display general cytotoxic effects.
MV-4-11 and MOLM14 were cultured in RPMI-1640 (Sigma Aldrich) supplemented with 10% fetal bovine serum (HyClone), 2 mM L-glutamine (Sigma Aldrich) and 50 μg/ml gentamycin (Gibco). K562 were propagated in RPMI-1640 (Sigma Aldrich) supplemented with 20% fetal bovine serum (HyClone), 2 mM L-glutamine (Sigma Aldrich) and 50 μg/ml gentamycin (Gibco). KG1 were cultured in Iscove's MDM (Gibco) supplemented with 20% fetal bovine serum (HyClone), 2 mM L-glutamine (Sigma Aldrich) and 50 μg/ml gentamycin (Gibco).
In order to assess the anti-proliferative effects, 1,500 MV-4-11, 300 MOLM14, 750 K562 or 1,300 KG1 cells were seeded in 200 μl media per well in 96-well round bottom, ultra-low attachment plates (Costar, catalogue number 7007). Cell seeding numbers were chosen based on growth curves to ensure linear growth throughout the experiment. Test compounds were added at different concentrations and the DMSO content was normalized to 0.3%. Cells were incubated for 8 d at 37° C. and 5% CO2. Spheroid like growth was monitored in real-time by live-cell imaging (IncuCyteZOOM, Essenbio, 4× objective) acquiring one image every four hours for 8 d. Confluence (%) as a measure of spheroid size was determined using an integrated analysis tool.
In order to determine the cumulative effect of the test compounds over time, the area under the curve (AUC) in a plot of confluence against time was calculated. Confluence at the beginning of the experiment (t=0) was used as baseline for the AUC calculation.
Absolute IC50 values were calculated according to the following procedure: % Control=(AUC sample/AUC control)*100
AUC control=mean AUC of control values (cells without compound/DMSO as vehicle control)
A non-linear curve fit was applied using the least squares (ordinary) fit method to the plot of % control versus compound concentration. Based on this, the absolute IC50 value (half maximal inhibitory concentration of the test compound causing an anti-proliferative effect of 50% relative to the vehicle control) was calculated.

Row | IC50 [1] | IC50 [2] | Compound
1 | 208 nM | 2300 nM | Fc1cncc(CN2CC[C@@H]3CN(c4ncnc5sc(CC(F)(F)F)cc45)C[C@@H]3C2)c1 (single isomer, unassigned) [Compound 38]
2 | 105 nM | 1500 nM | COc1cncc(CN2CC[C@@H]3CN(c4ncnc5sc(CC(F)(F)F)cc45)C[C@@H]3C2)c1 (single isomer, unassigned) [Compound 46]
3 | 30 nM | 1200 nM | O=C(C1CCOCC1)N1CCC(CN2CC[C@@H]3CN(c4ncnc5sc(CC(F)(F)F)cc45)C[C@@H]3C2)CC1 (single isomer, unassigned) [Compound 91]
4 | 44 nM | 1900 nM | CC(CN1CC[C@@H]2CN(c3ncnc4sc(CC(F)(F)F)cc34)C[C@@H]2C1)c1ccccc1 (single isomer, unassigned) [Compound 49]
5 | 20 nM | 580 nM | CC(C)(C)CC(=O)N1CCC(CN2CC[C@@H]3CN(c4ncnc5sc(CC(F)(F)F)cc45)C[C@@H]3C2)CC1 (single isomer, unassigned) [Compound 93]
6 | 146 nM | 1700 nM | COc1ccncc1CN1CC[C@@H]2CN(c3ncnc4sc(CC(F)(F)F)cc34)C[C@@H]2C1 (single isomer, unassigned) [Compound 61]
7 | 106 nM | 1100 nM | CCOc1ccc(CN2CC[C@@H]3CN(c4ncnc5sc(CC(F)(F)F)cc45)C[C@@H]3C2)cn1 (single isomer, unassigned) [Compound 103]
8 | 150 nM | 2000 nM | COCCn1cc(CN2CC[C@@H]3CN(c4ncnc5sc(CC(F)(F)F)cc45)C[C@@H]3C2)cn1 (single isomer, unassigned) [Compound 97]
9 | 36 nM | 2200 nM | FC(F)(F)Cc1cc2c(N3C[C@H]4CCN(Cc5ccc(Cl)nc5Cl)C[C@H]4C3)ncnc2s1 (single isomer, unassigned) [Compound 62]
10 | 103 nM | 3100 nM | FC(F)(F)Cc1cc2c(N3CC[C@@H]4[C@@H](CCN4Cc4ccc[nH]4)C3)ncnc2s1 (single isomer, unassigned) [Compound 85]
11 | 97 nM | 1300 nM | FC(F)(F)Cc1cc2c(N3C[C@H]4CCN(Cc5cncc(Cl)c5)C[C@H]4C3)ncnc2s1 (single isomer, unassigned) [Compound 43]
12 | 55 nM | 2300 nM | CC(CN1CC[C@@H]2CN(c3ncnc4sc(CC(F)(F)F)cc34)C[C@@H]2C1)C(F)(F)F (single isomer, unassigned) [Compound 47]
13 | 41 nM | 860 nM | FC(F)(F)Cc1cc2c(N3C[C@H]4CCN(Cc5cnsc5)C[C@H]4C3)ncnc2s1 (single isomer, unassigned) [Compound 52]
14 | 212 nM | 1800 nM | FC(F)(F)Cc1cc2c(N3C[C@H]4CCN(CCC5CCOCC5)C[C@H]4C3)ncnc2s1 (single isomer, unassigned) [Compound 59]
15 | 45 nM | 1000 nM | O=C(c1cccnc1)N1CCC(CN2CC[C@@H]3CN(c4ncnc5sc(CC(F)(F)F)cc45)C[C@@H]3C2)CC1 (single isomer, unassigned) [Compound 96]
16 | 198 nM | 6600 nM | OC1(CN2CC[C@@H]3CN(c4ncnc5sc(CC(F)(F)F)cc45)C[C@@H]3C2)CCOCC1 (single isomer, unassigned) [Compound 86]
17 | 24 nM | 240 nM | FC(F)(F)Cc1cc2c(N3C[C@H]4CCN(Cc5ccc(C6CC6)nc5)C[C@H]4C3)ncnc2s1 (single isomer, unassigned) [Compound 89]
18 | 18 nM | 430 nM | O=C(c1ccccc1)N1CCC(CN2CC[C@@H]3CN(c4ncnc5sc(CC(F)(F)F)cc45)C[C@@H]3C2)CC1 (single isomer, unassigned) [Compound 94]
19 | 75 nM | 3300 nM | FC(F)(F)Cc1cc2c(N3C[C@H]4CCN(Cc5ccnnc5)C[C@H]4C3)ncnc2s1 (single isomer, unassigned) [Compound 55]
20 | 62 nM | 2300 nM | FC(F)(F)Cc1cc2c(N3C[C@H]4CCN(Cc5cnoc5)C[C@H]4C3)ncnc2s1 (single isomer, unassigned) [Compound 51]
21 | 97 nM | 2100 nM | Cn1cncc1CN1CC[C@@H]2CN(c3ncnc4sc(CC(F)(F)F)cc34)C[C@@H]2C1 (single isomer, unassigned) [Compound 54]
22 | 105 nM | 2900 nM | CC(=O)N1CCC(CN2CC[C@@H]3CN(c4ncnc5sc(CC(F)(F)F)cc45)C[C@@H]3C2)CC1 (single isomer, unassigned) [Compound 76]
23 | 23 nM | 870 nM | O=C(c1ccncc1)N1CCC(CN2CC[C@@H]3CN(c4ncnc5sc(CC(F)(F)F)cc45)C[C@@H]3C2)CC1 (single isomer, unassigned) [Compound 108]
24 | 56 nM | 1200 nM | FC(F)(F)Cc1cc2c(N3C[C@H]4CCN(Cc5ccnc(Cl)c5)C[C@H]4C3)ncnc2s1 (single isomer, unassigned) [Compound 65]
25 | 28 nM | 1000 nM | OCCn1cc(CN2CC[C@@H]3CN(c4ncnc5sc(CC(F)(F)F)cc45)C[C@@H]3C2)cn1 (single isomer, unassigned) [Compound 75]
26 | 11 nM | 220 nM | Nc1ccc(CN2CC[C@@H]3CN(c4ncnc5sc(CC(F)(F)F)cc45)C[C@@H]3C2)cn1 (single isomer, unassigned) [Compound 105]
